According to patent US20070155835A1, “USE OF ORTHO-PH[…]/OR DERIVATIVES THEREOF FOR INHIBITING THE ASEXUAL REPRODUCTION OF FUNGI” (Henkel Kommanditgesellschaft auf Aktien (Henkel KGaA), priority 2004, published 2007):

Experiments:
[1] = tested on: Aspergillus niger (DSM1988); test: Sporulation of Aspergillus niger on wort agar plates containing active substance, assessed visually; assay type: cell-based
Experimental: (§1) The surfaces of wort agar plates were each contaminated with 100 μl of a germ suspension (10^3 CFU/ml) of Aspergillus niger (DSM1988). Different quantities of active substance (solutions in ethanol, see table for final concentrations) had previously been added to the agar plates. The plates were incubated for 3 days at 25° C. Sporulation was assessed visually, and the sporulation rate (in %) was determined.
as §1

[2] = tested on: Aspergillus niger (DSM1988); test: Growth of the test strain on wort agar plates containing active substance; assay type: cell-based
Experimental: as §1, with “determined. […] A growth-inhibiting or germ-killing effect occurred only at a concentration of 0.05 wt % OPP.” for “determined.”
as §1

**Q.** `CC(C)=CCCC(C)=CCCC(C)=CCO` [Farnesol, reference compound] was tested. Which “Sporulation [%]” value ([1]; Farnesol concentration 25 μM, comparative experiment) did it give?
**A.** 90%

**Q.** What about the “Sporulation [%]” value ([1]; Farnesol concentration 62.5 μM, comparative experiment) of the same compound?
**A.** 75%

**Q.** What about the “Sporulation [%]” value ([1]; Farnesol concentration 125 μM, comparative experiment) of the same compound?
**A.** 50%

**Q.** What about the “Sporulation [%]” value ([1]; Farnesol concentration 250 μM, comparative experiment) of the same compound?
**A.** 10%

**Q.** And the “Sporulation [%]” value ([1]; Farnesol concentration 500 μM, comparative experiment)?
**A.** 0%

**Q.** How did the “Sporulation [%]” value ([1]; OPP concentration 0.00001 %, wort agar, 3 days at 25° C.) turn out when `Oc1ccccc1-c1ccccc1` [OPP, Ortho-Phenylphenol] was run?
**A.** 95%

**Q.** What about the “Sporulation [%]” value ([1]; OPP concentration 0.00005 %, wort agar, 3 days at 25° C.) of the same compound?
**A.** 95%

**Q.** What about the “Sporulation [%]” value ([1]; OPP concentration 0.0001 %, wort agar, 3 days at 25° C.) of the same compound?
**A.** 85%

**Q.** What about the “Sporulation [%]” value ([1]; OPP concentration 0.0005 %, wort agar, 3 days at 25° C.) of the same compound?
**A.** 10%

**Q.** What about the “Sporulation [%]” value ([1]; OPP concentration 0.001 %, wort agar, 3 days at 25° C.) of the same compound?
**A.** 0%

**Q.** And the “Sporulation [%]” value ([1]; OPP concentration 0.005 %, wort agar, 3 days at 25° C.)?
**A.** 0%

**Q.** What about the “Sporulation [%]” value ([1]; OPP concentration 0.05 %, wort agar, 3 days at 25° C.) of the same compound?
**A.** no growth

**Q.** And the “Sporulation [%]” value ([1]; OPP concentration 0.1 %, wort agar, 3 days at 25° C.)?
**A.** no growth

**Q.** And the “Sporulation [%]” value ([1]; OPP concentration 1.0 %, wort agar, 3 days at 25° C.)?
**A.** no growth

**Q.** What about the “Concentration completely suppressing sporulation relative to growth-inhibiting or germ-killing concentration” value ([1]; no growth-inhibiting effect at that concentration) of the same compound?
**A.** fifty times lower

**Q.** And the “Utilization concentration at which sporulation was completely suppressed” value ([1]; wort agar, 3 days at 25° C.)?
**A.** 0.001 wt %

**Q.** What about the “Concentration at which a growth-inhibiting or germ-killing effect occurred” value ([2]; wort agar, 3 days at 25° C.) of the same compound?
**A.** 0.05 wt %

**Q.** Which results are given for “Ortho-Phenylphenol/Silicic Acid Ester [OPP/SAE]”?
**A.** Sporulation [%] ([1]; OPP/SEA concentration 0.00001 %, wort agar, 3 days at 25° C.): 95%; Sporulation [%] ([1]; OPP/SEA concentration 0.00005 %, wort agar, 3 days at 25° C.): 95%; Sporulation [%] ([1]; OPP/SEA concentration 0.0001 %, wort agar, 3 days at 25° C.): 95%; Sporulation [%] ([1]; OPP/SEA concentration 0.0005 %, wort agar, 3 days at 25° C.): 50%; Sporulation [%] ([1]; OPP/SEA concentration 0.001 %, wort agar, 3 days at 25° C.): 25%; Sporulation [%] ([1]; OPP/SEA concentration 0.005 %, wort agar, 3 days at 25° C.): 0%; Sporulation [%] ([1]; OPP/SEA concentration 0.01 %, wort agar, 3 days at 25° C.): 0%; Utilization concentration at which sporulation was completely suppressed ([1]; wort agar, 3 days at 25° C.): 0.005 wt %; Effect of the concentrations used on growth of the test strain ([2]; concentrations of the tables, unless otherwise indicated in the tables): did not prevent growth of the test strain
